One may read the inhibition as the share of the control response that was lost under treatment. For orientation: melting point means the temperature, or range, at which the solid turns liquid.

The test system of one series is production of PGF2α. Briefly: Inhibition of PGF2α production in IL-1β-stimulated A549 cells (EIA). It is filed as cell-based. Conditions: Homo sapiens, IL-1β 1 ng/ml, 18 hours; for inhibition at 10 µM: compound 10 μM, na = not active at the experimental concentration; for IC50: negative logarithm of IC50, read-out: pIC50 PGF2α (converted). An excerpt: (§1) This test allows evaluation of the inhibitory capability on the production of the PGE2 prostaglandins and the selectivity relative to the production of the PGF2α prostaglandins.
(§2) The cell line A549, human pulmonary adenocarcinoma, was used, which is particularly sensitive to stimulation with pro-inflammatory cyokines, for instance IL-1β, and, in response to this stimulation, is particularly active in the production and release of two prostanoids: PGE2 and PGF2α (Thoren S. Jakobsson P-J, 2000).
(§3) The cells were stimulated with IL-1β, (1 ng/ml) and simultaneously treated with the test compound for 18 hours in an appropriate culture medium (DMEM—Dulbecco's Modified Eagle's Medium) supplemented with 5% foetal calf serum and L-glutamine (4 mM final) in an incubator at 37° C. and at a CO2 concentration of 5%.
(§4) After the incubation, the amount of PGE2 and PGF2α produced and released into the supernatant were assayed using an EIA kit (produced and sold by Cayman Chemicals, Ann Arbor, Mich., USA).
(§5) The comparative compounds used were indomethacin (Sigma-Aldrich), a non-steroidal anti-inflammatory drug that inhibits in equal measure both PGE2 and PGF2α, and also the compounds of formula (I) in which R1=CH3CH2, R2=OH, R3=R4=R5=R6=X=Y=H (comparative compound A) and R1=CH3CH2, R2=SCH3, R3=R4=R5=R6=X=Y=H (comparative compound B). […]

The next series concerns production of PGI2. Briefly: Test on human primary endothelial cells (HUVEC): inhibition of PGI2 production. It is filed as cell-based. The conditions noted are these: for Inhibition (%) of PGI2: compound at LogM −5, relative to control. The procedure:
This test allows evaluation of the capability of the compounds of the invention to inhibit the production of PGI2.
The absence of inhibitory activity on this prostanoid can ensure maintenance of the vasoprotective action of the PGI2 prostanoids and provide useful pharmacological information regarding the absence of adverse side effects on the endothelium.
The action of the test compounds is evaluated in HUVEC cells under basal conditions and conditions of stimulation (J. Immunol. 1989, Jun. 1; 142(11): 3993-9).
The results are given as a percentage of inhibition relative to the control enzymatic activity.
Indomethacin is used as reference compound.

A further series has as its system production of PGE2. Briefly: Inhibition of PGE2 production in IL-1β-stimulated A549 cells (EIA). It is filed as cell-based. The conditions noted are these: Homo sapiens, IL-1β 1 ng/ml, 18 hours; for inhibition at 10 µM: compound 10 μM, na = not active at the experimental concentration; for IC50: negative logarithm of IC50, read-out: pIC50 PGE2 (converted).
Source text: as §1, §2, §3, §4, §5

The compound `CC(C)n1c2ccccc2c2cc(NC(=O)c3ccccc3Cl)ccc21` [Compound 2, 2-chloro-N-[9-(1-methylethyl)-9H-carbazol-3-yl]benzamide] had a melting point of 195 °C. In the series with production of PGF2α, 10 µM produced 66% inhibition and the IC50 is 10000 nM. Besides, in the series with production of PGI2, the “Inhibition (%) of PGI2” value is 31%. In the series on production of PGE2, testing at 10 µM gave an inhibition of 90% and the IC50 was 794 nM.

`CCn1c2ccccc2c2cc(NC(=O)c3c(C)cccc3C)ccc21` [Compound 5, N-(9-ethyl-9H-carbazol-3-yl)-2,6-dimethylbenzamide] displayed a melting point of 192 to 193 °C. In the series on production of PGF2α, this compound had an inhibition at 10 µM of 60%. Besides, the inhibition at 10 µM in the series on production of PGE2 came to 93%.

The compound `CCn1c2ccccc2c2cc(NC(=O)c3ccccc3C(F)(F)F)ccc21` [Compound 4, N-(9-ethyl-9H-carbazol-3-yl)-2-(trifluoromethyl)benzamide] came in with a melting point of 206 to 207 °C. In addition, in the series on production of PGF2α, the inhibition at 10 µM turned out to be 0% and the IC50 is 100000 nM. The “Inhibition (%) of PGI2” value in the series with production of PGI2 turned out to be 21%. In the series with production of PGE2, at 10 µM the inhibition was 67% and the IC50 is 631 nM.

On to `CCn1c2ccccc2c2cc(NC(=O)c3ccccc3O)ccc21` [Compound A, N-(9-ethyl-9H-carbazol-3-yl)-2-hydroxybenzamide, reference compound], for which the results for the inhibition at 10 µM in the series on production of PGF2α and in the series on production of PGE2 were 84% and 88%, respectively.

As to `Cn1c2ccccc2c2cc(NC(=O)c3ccccc3Cl)ccc21` [Compound 1, 2-chloro-N-(9-methyl-9H-carbazol-3-yl)benzamide], the melting point was 206 °C. Also, the inhibition at 10 µM with production of PGF2α came to 27%. In the series with production of PGE2, this compound gave an inhibition at 10 µM of 59%.

For the compound `COc1ccc2c(c1)c(CC(=O)O)c(C)n2C(=O)c1ccc(Cl)cc1` [indomethacin, reference compound], the inhibition at 10 µM in the series with production of PGF2α and in the series with production of PGE2 was 100% in each case. Also, the IC50 is 2.51 nM in the series on production of PGF2α; 10 nM with production of PGI2 (Homo sapiens, PGI2, printed as a negative logarithmic figure, read-out: IC50 (comparison compound) (converted)); 5.01 nM in the series with production of PGE2.

On to `O=C(Nc1ccc2c(c1)c1ccccc1n2Cc1ccccc1)c1ccccc1Cl` [Compound 3, 2-chloro-N-[9-(phenylmethyl)-9H-carbazol-3-yl]benzamide], for which, in the series with production of PGF2α, at 10 µM the inhibition was 7% and the IC50 is above 100000 nM. Further, in the series on production of PGE2, 10 µM produced 86% inhibition and the IC50 was 1260 nM.

(Values after patent US7879900B2, “3-aminocarbazole compounds, pharmaceutical composition containing the same and method for the preparation thereof” (Aziende Chimiche Riunite Angelini Francesco A.C.R.A.F. …, priority 2005, dated 2011).)
